Assay results published in US20150175655A1 (priority 2012, published 2015).

Assays:
Assay type in all cases: cell-based
[1] = tested on: genotype 1a (H77) wild-type transient HCV replicon in Huh-7-derived cells; test: Transient-transfected HCV replicon EC50, genotype 1a wild type; details: Hepatitis C virus; transient-transfected replicon genotype 1a wild type, 72 h; read-out: EC50 1A WT
[2] = tested on: genotype 3a transient HCV replicon (S52 strain) in Huh-7-derived cells; test: Transient-transfected HCV replicon EC50, genotype 3a wild type; details: Hepatitis C virus; transient-transfected replicon genotype 3a wild type, 72 h; read-out: EC50 3A WT
[3] = tested on: genotype 2a stable HCV replicon (JFH-1 strain) in Huh-7-derived cells; test: Stable subgenomic HCV replicon EC50, genotype 2a (Renilla luciferase); details: Hepatitis C virus, stable replicon genotype 2a, 72 h, read-out: EC50 2A RLUC
Procedure: (§1) Antiviral potency (EC50) was determined in both stable subgenomic HCV replicon cell lines and transient-transfected HCV replicon cells. The term half maximal effective concentration (EC50) refers to the concentration of a drug which induces a response halfway between the baseline and maximum after the exposure time specified below.
(§2) Stable subgenomic HCV replicons for genotype 1a, 1 b, 2a, 3a, and 4a were established in Huh-7-derived cells as described by Lohmann et al (Lohmann V, Korner F, Koch J, et al Replication of subgenomic hepatitis C virus RNAs in a hepatoma cell line. Science 1999; 285:119-3). Each stable cell line contains a bicistronic HCV replicon that encodes a humanized Renilla luciferase (hRLuc) reporter gene fused to a selectable neomycin-resistance gene, followed by an EMCV IRES and the NS3-NS5B coding region of HCV. […] Luciferase activity was measured as a marker for intracellular HCV replication levels.
(§3) The genotype 1a stable replicon was derived from the H77 HCV strain and contained adaptive mutations P1496L and S2204I. The genotype 1 b stable replicon was derived from the Cont HCV strain and contained adaptive mutations E1202G, T1280I, and K1846T. […] The genotype 3a stable replicon was derived from the S52 HCV strain and contained adaptive mutations P1121 L, A1198T and S2210I (equivalent to S2204I in genotype 1). The genotype 4a stable replicon was derived from the ED43 HCV strain and contained adaptive mutations Q1691R and S2204I. All replicon cell lines were propagated in Huh-7-derived cells and maintained in Dulbecco's modified Eagle's Medium (DMEM) supplemented with 10% fetal bovine serum (FBS) and 0.5 mg/mL G418.
(§4) To perform EC50 assays, cells from each HCV replicon were dispensed into 384-well plates. Compounds were dissolved in DMSO at a concentration of 10 mM and diluted in DMSO using an automated pipetting instrument. Three-fold serially diluted compounds were directly added to the cells using an automated instrument. […] Seventy-two hours later, cells were lysed and Renilla luciferase activity were quantified as recommended by the manufacturer (Promega-Madison, Wis.). Non-linear regression was performed to calculate EC50 values.

[4] = tested on: genotype 1a stable HCV replicon (H77 strain) in Huh-7-derived cells; test: Stable subgenomic HCV replicon EC50, genotype 1a (Renilla luciferase); details: Hepatitis C virus, stable replicon genotype 1a, 72 h, read-out: EC50 1A RLUC
Procedure: as §1, §2, §3, §4

[5] = tested on: genotype 4a stable HCV replicon (ED43 strain) in Huh-7-derived cells; test: Stable subgenomic HCV replicon EC50, genotype 4a (Renilla luciferase); details: Hepatitis C virus, 72 h, read-out: EC50 4A RLUC
Procedure: as §1, §2, §3, §4

[6] = tested on: genotype 1a transient HCV replicon, NS3/4a protease inhibitor resistant variant R155K, in Huh-7-derived cells; test: Transient-transfected HCV replicon EC50, genotype 1a R155K; details: Hepatitis C virus, 72 h, read-out: EC50 1A R155K
[7] = tested on: genotype 3a stable HCV replicon (S52 strain) in Huh-7-derived cells; test: Stable subgenomic HCV replicon EC50, genotype 3a (Renilla luciferase); details: Hepatitis C virus, 72 h, read-out: EC50 3A RLUC
Procedure: as §1, §2, §3, §4

[8] = tested on: genotype 1b transient HCV replicon, NS3/4a protease inhibitor resistant variant D168A, in Huh-7-derived cells; test: Transient-transfected HCV replicon EC50, genotype 1b D168A; details: Hepatitis C virus, 72 h, read-out: EC50 1B D168A

| SMILES | EC50 [1] | EC50 [2] | EC50 [3] | EC50 [4] | EC50 [5] | EC50 [6] | EC50 [7] | EC50 [8] |
| --- | --- | --- | --- | --- | --- | --- | --- | --- |
| CC[C@@H]1[C@@H]2CN(C(=O)[C@H](C(C)(C)C)NC(=O)O[C@]3(C)CCC[C@H]3CCCCCc3nc4ccc(OC)cc4nc3O2)[C@@H]1C(=O)N[C@]1(C(=O)NS(=O)(=O)C2(C)CC2)C[C@H]1CC(F)F [Example 41, (3aR,7S,10S,11S,12R,24aR)-7-tert-butyl-N-[(1R,2S)-2-(2,2-difluoroethyl)-1-{[(1-methylcyclopropyl)sulfonyl]carbamoyl}cyclopropyl]-11-ethyl-16-methoxy-3a-methyl-5,8-dioxo-1,2,3,3a,5,6,7,8,11,12,20,21,22,23,24,24a-hexadecahydro-10H-9,12-methanocyclopenta[18,19][1,10,3,6]dioxadiazacyclononadecino[11,12-b]quinoxaline-10-carboxamide] | 164 nM | 539 nM | 106 nM | 135 nM |  |  |  |  |
| CC[C@@H]1[C@@H]2CN(C(=O)[C@H](C(C)(C)C)NC(=O)O[C@@H]3C[C@H]3CC/C=C/C(F)(F)C3Nc4ccc(C#N)cc4N=C3O2)[C@@H]1C(=O)N[C@]1(C(=O)NS(=O)(=O)C2(C)CC2)C[C@H]1C(F)F (stereo partly drawn) [Example 78, (1aR,5S,8S,9S,10R,19E,22aR)-5-tert-butyl-14-cyano-N-[(1R,2R)-2-(difluoromethyl)-1-{[(1-methylcyclopropyl)sulfonyl]carbamoyl}cyclopropyl]-9-ethyl-18,18-difluoro-3,6-dioxo-1,1a,3,4,5,6,9,10,17,17a,18,21,22,22a-tetradecahydro-8H-7,10-methanocyclopropa[18,19][1,10,3,6]dioxadiazacyclononadecino[11,12-b]quinoxaline-8-carboxamide] | 189 nM | 194 nM | 195 nM | 267 nM | 225 nM | 225 nM | 1120 nM | 248 nM |
| C[C@@H]1[C@@H]2CN(C(=O)[C@H](C(C)(C)C)NC(=O)O[C@@H]3C[C@H]3CCCCC(F)(F)c3nc4ccc(Cl)cc4nc3O2)[C@@H]1C(=O)N[C@]1(C(=O)NS(=O)(=O)C2(C)CC2)C[C@H]1C(F)F [Example 88, (1aR,5S,8S,9S,10R,22aR)-5-tert-butyl-14-chloro-N-[(1R,2R)-2-(difluoromethyl)-1-{[(1-methylcyclopropyl)sulfonyl]carbamoyl}cyclopropyl]-18,18-difluoro-9-methyl-3,6-dioxo-1,1a,3,4,5,6,9,10,18,19,20,21,22,22a-tetradecahydro-8H-7,10-methanocyclopropa[18,19][1,10,3,6]dioxadiazacyclononadecino[11,12-b]quinoxaline-8-carboxamide] | 5 nM | 35 nM | 2.7 nM | 9.3 nM | 4.1 nM | 14 nM | 105 nM | 24 nM |
| COc1ccc2nc3c(nc2c1)O[C@H]1CN(C(=O)[C@H](C(C)(C)C)NC(=O)O[C@@H]2C[C@H]2CCCCC3F)[C@H](C(=O)N[C@]2(C(=O)NS(=O)(=O)C3(C)CC3)C[C@H]2C(F)F)[C@@H]1C (stereo partly drawn) [Example 47, (1aR,5S,8S,9S,10R,22aR)-5-tert-butyl-N-[(1R,2R)-2-(difluoromethyl)-1-{[(1-methylcyclopropyl)sulfonyl]carbamoyl}cyclopropyl]-18-fluoro-14-methoxy-9-methyl-3,6-dioxo-1,1a,3,4,5,6,9,10,18,19,20,21,22,22a-tetradecahydro-8H-7,10-methanocyclopropa[18,19][1,10,3,6]dioxadiazacyclononadecino[11,12-b]quinoxaline-8-carboxamide] | 5.4 nM | 17 nM | 12 nM | 3.8 nM | 4.2 nM | 6.1 nM | 58 nM | 12 nM |
